In US10668032B2 (SyneuRx International (Taiwan) Corp., priority 2016, dated 2020):

How the values were obtained:
[1] = system: cortical neurons; test: Mitochondrial respiration, XF Cell Mito Stress Test (OCR); type: cell-based, rat; conditions: 3 mM, pre-treatment 24 h
Description: The preparation of primary cortical culture was as described before, but the cells were seeded on XF 96 well cell culture microplates. On the day of assay, culture media were changed to XF Assay medium (Seahorse Biosciences, USA). Prior to assay, plates were transferred into an incubator with CO2 supplementation at 37° C. and kept for 1 hour. The overall OCR was calculated.
The XF Cell Mito Stress Test modulates respiration that target components of the electron transport chain (ETC) in the mitochondria to reveal key parameters of metabolic function. The modulators (oligomycin, FCCP, and a mix of rotenone and antimycin A) are serially injected to measure ATP production, maximal respiration, and non-mitochondrial respiration. Proton leak and spare respiratory capacity are then calculated using these parameters.

[2] = system: MPTP/3-NP-induced C57BL/6J mice; test: Rotarod in MPTP plus 3-NP intoxicated mice (MSA-P model); type: in vivo, mouse; conditions: 256 mg/kg body weight/day for one week after 9 days MPTP/3-NP, vs saline
Description: Male C57BL/6J mice (age, 8-12 weeks) were randomly assigned to 2 groups—vehicle control and MPTP/3-NP-induced groups. MPTP and 3-NP were administered during a 9-day intoxication period. 3-NP was administered i.p. every 12 h (total dose 450 mg/kg in 9 days) and MPTP i.p. at 10 mg/kg/day (total dose 90 mg/kg in 9 days).
Rotarod motor activity was measured before and after chronic MPTP/3-NP induction, respectively. Time spent on the rod at each level of revolving speed indicated motor performance. Mice were trained at the speed accelerating from 4 to 10 rpm over 5 min before the test (−7, −5, −3 Days). During the test, all animals started at 4 rpm and accelerated from 4 to 20 rpm over 5 min with each mouse experiencing three trials per day with inter-trial interval of 10 min. The average latency time of each mouse to fall is calculated.

[3] = system: C57BL/6J mice; test: Von Frey test of acute mechanical pain; type: in vivo, mouse; conditions: 256 mg/kg i.p.
Description: Animals are housed and kept in the same condition as previous described.
The Von Frey test is used to assess mechanical nociception. A mouse is placed in a small box (10 cm×6 cm×10.5 cm) on a confined area of wire mesh (65 cm×21 cm×31 cm) (2450 Electronic Von Frey Anesthesiometer, IITC, U.S.A.). The mouse was kept in the box for 60 min to acclimatize. When the tested mouse calms down, a special tip with electrode inside was used to poke its hind paw.

[4] = Plasma pharmacokinetics of lithium after oral gavage (ICP-MS)
Description: Male Sprague-Dawley rats weighed between 240-260 g were randomly assigned to two groups. […] These two regimens would provide the same molarity of lithium and benzoate. The chemicals were dissolved in PBS, and then administrated by oral gavage. All rats were fasted overnight with free access to water before experiments. After single dose administration of drugs, the blood samples were then collected at the time point 0, 5, 15, 30, 60, 90, 120, 240, 360, 720, and 1440 min.
Blood samples were collected in tubes coated with sodium heparin from jugular vein catheterized rats. Then, the blood samples were kept on ice and centrifuged at 2,500×g for 15 min at 4° C. The supernatant was collected and then kept frozen at −80° C. until further processing.

[5] = system: primary cortical cells; test: Neurogenesis (BrdU/NeuN co-localization) in primary cortical culture after Aβ25-35; type: cell-based, rat; conditions: 0.5 mM, 4 days; compared with the other two drugs
Description: Primary cortical cultures were prepared from embryonic day 18 (E18) fetal Spragu-Dawley (SD) rat brains. Culture medium was removed from cells and replace with BrdU labeling solution and incubated at 37° C. for 4 days aligned with treatments after Aβ25-35 for 2 days. Cells were fixed in 4% PFA and washed in PBS, blocked with 2% bovine serum albumin (BSA) and 0.03% Triton X-100 in PBS, acid-washed with 2N HCl and phosphate/citric acid buffer (pH 7.4). Next, anti-BrdU primary antibody (1:250, Thermo Scientific) or anti-NeuN primary antibody (1:300, Abcam) were added. The goat anti-rat IgGAlexa Fluor-conjugated secondary antibodies (1:200; Thermo Scientific); anti-mouse IgG Alexa Fluor-conjugated secondary antibodies (1:500; Thermo Scientific) were applied to recognize the primary antibodies of the BrdU and NeuN respectively.
The coverslips were observed under a digital imaging fluorescence microscope (Olympus BX61; Japan) equipped with filter sets to detect the corresponding fluorescence signals.
The second part of mechanism study was focused on neurogenesis. The impairment of neurogenesis in the adult hippocampus has been an important evidence of the pathogenesis of Alzheimer's disease. […]

[6] = system: B6CBA-Tg(HDexon1)62Gpb/3J mice; test: Survival of HDexon1 (R6/2) transgenic Huntington's disease mice; type: in vivo, mouse; conditions: 256 mg/kg/day i.p. from 11 weeks after birth, vs vehicle-treated HDexon1 transgenic mice
Description: Animals used in the examples of the present disclosure were housed in an animal room under temperature control (24-25° C.) and 12:12 light-dark cycle. Standard laboratory chow and tap water were available ad libitum. The experiments procedures were approved by the Institutional Animal Care and Use Committee and were performed in compliance with national animal welfare regulations. Transgenic mice B6CBA-Tg(HDexon1)62Gpb/3J were purchased from the Jackson Laboratory (USA).
Drug regimen was initiated 11 weeks after birth, and continued until the end of study. […] The mice of vehicle group received injections of the same volume of saline.
Date and cause of death were recorded for each mouse. Animals were closely monitored and euthanized if moribund, which was defined as the inability of mice to right themselves 30 seconds after being placed on a side, in accordance with the criteria for severe morbidity. The moribund mice were recorded as “dead”, and euthanized using carbon dioxide.

[7] = system: primary cortical neurons; test: Aβ25-35 cytotoxicity in primary cortical culture, cell survival (MTT)
Description: MTT assay was used to assess the extents of cell survival. MTT (3-(4,5-dimethylthiazol-2-yl)-2,5-diphenyltetrazolium bromide) was added to the culture, incubated at 37° C. for 4 hours. Insoluble purple formazan products were yield by living cells. The colorimetric method was used to quantify the surviving cells, and “cell survival (%)” was defined as the mean numbers of surviving cells.
Primary cortical cultures were prepared as previous described. Aβ25-35 (Cat. No. A4559, Sigma) was dissolved in autoclaved ddH2O to make a stock solution of 2 mM, dispensed into aliquots, and immediately stored at −80° C. until use.

Structure (SMILES): O=C([O-])c1ccccc1.[Li+] [lithium benzoate]
- basal respiration (basal OCR) [1]: reduced more basal OCR than the other groups
- spare respiratory capacity [1]: increasing of spare respiratory capacity
- ATP production ([1]; versus NaBen or LiCl): better reduction levels
- proton leak ([1]; versus NaBen or LiCl): better reduction levels
- retention time on rotarod [2]: significantly improved
- acute mechanically evoked pain (paw withdrawal threshold) ([3]; vs PBS): alleviated
- time course of the antinociceptive effect ([3]; tested at 30, 60, 90, 120 min): obvious after 30 min of administration and lasted till 60 min
- Tmax of lithium ([4]; rat, single oral gavage, NaBen 287.9 mg/kg + Li2CO3 74.2 mg/kg or LiBen 255.3 mg/kg): 2.208 h
- Cmax ([4]; read-out: Cmax of lithium, rat, single oral gavage, NaBen 287.9 mg/kg + Li2CO3 74.2 mg/kg or LiBen 255.3 mg/kg): 1720 µM
- neurogenesis (BrdU(+)/NeuN(+) cells) after Aβ25-35 exposure [5]: unsurpassed performance of neurogenesis
- proportion of mice surviving over time [6]: improved
- cortical cell survival after Aβ25-35 ([7]; 10 μM Aβ 25-35 for 2 days, then drug 1 mM for 4 days, vs no drug treatment): statistical improvement
- reduction of cell death from Aβ25-35 toxicity compared with sodium benzoate and lithium chloride ([7]; 1 mM each, 4 days): much more than the other two drugs
